“Also recorded” adds a separate entry of the source.
Columns and labels:
[1] = tested on: JJN-3 multiple myeloma cells; assay type: cell-based, human; conditions: JJN-3, 10 μM
Source text: Minor effects on the proliferation of the IH-1 and RPMI 8226 cell lines are seen. […] The number of viable cells was detected based on quantitation of ATP by luminescent signal in correlation to a standard curve prepared for each cell line. Results are based on 3-5 biological replicates for each condition, error bars show standard deviation of mean.
Multiple myeloma cells JJN-3 (DSMZ (Germany) no. ACC 541), ANBL-6 (Cellosaurus accession number CVCL_5425, obtained from Dr Diane Jelinek, Mayo Clinic, Rochester, Minn.), INA-6 (Cellosaurus accession number CVCL_5209, obtained from Dr M. Gramatzki, University of Erlangen-Nurnberg, Erlangen, Germany), RPMI-8226 (ATCC CCL-155), and IH-1 (Cellosaurus accession number CVCL_WZ44, established from the pleural effusion of a myeloma patient by Myeloma research group, IKOM, NTNU, Trondheim, Norway) were grown in RPMI-1640 (Sigma-Aldrich Norway, Oslo, Norway) supplemented with 100 nM penicillin/streptomycin and 10% FCS, and for ANBL-6, IH-1 and INA-6 cells 2 ng/ml recombinant IL-6 (Gibco, Thermo Fisher Scientific, Waltham, Mass., USA). Murine multiple myeloma Vk*MYC cells were obtained from M.D. Leif Bergsagel (Mayo Clinic, Richester, Minn., USA) and cultured in RPMI-1640 supplemented with 2% human serum (B^+, The blood bank, St Olav's Hospital, Trondheim, Norway), 100 nM penicillin/streptomycin, L-Glutamine (2 mM) and recombinant IL-6 (1 ng/ml). HEK293T (ATCC CRL-3216) were cultured in DMEM with 10% FCS. THP-1 TRAM knockout (KO) and TLR4 KO cell lines, and matching lentivirally transduced control cell lines, were differentiated in the same way as wild type (WT) THP-1. TRAM KO THP-1 cell line is described in Yurchenko et al. (supra).
To evaluate the potential impact of the P7 peptide on proliferation of tumour cells of lymphoid origin, we performed a CellTiter-Glo Luminescent Cell Viability Assay to address proliferation of several multiple myeloma (MM) cell lines. […]

[2] = tested on: RPMI 8226 multiple myeloma cells; assay: CellTiter-Glo cell viability assay, RPMI 8226; assay type: cell-based, human; conditions: RPMI 8226, 10 μM, 48 h
Description: Minor effects on the proliferation of the IH-1 and RPMI 8226 cell lines are seen. Cells were seeded at the level shown (left-hand bar of each set) then incubated in medium containing water, 10 μM penetratin or 10 μM P7-A4-Pen for 48 hr (except for INA-6 cells, which were incubated with 12.5 μM penetratin or 12.5 μM P7-A4-Pen). The number of viable cells was detected based on quantitation of ATP by luminescent signal in correlation to a standard curve prepared for each cell line. Results are based on 3-5 biological replicates for each condition, error bars show standard deviation of mean.
Multiple myeloma cells JJN-3 (DSMZ (Germany) no. ACC 541), ANBL-6 (Cellosaurus accession number CVCL_5425, obtained from Dr Diane Jelinek, Mayo Clinic, Rochester, Minn.), INA-6 (Cellosaurus accession number CVCL_5209, obtained from Dr M. Gramatzki, University of Erlangen-Nurnberg, Erlangen, Germany), RPMI-8226 (ATCC CCL-155), and IH-1 (Cellosaurus accession number CVCL_WZ44, established from the pleural effusion of a myeloma patient by Myeloma research group, IKOM, NTNU, Trondheim, Norway) were grown in RPMI-1640 (Sigma-Aldrich Norway, Oslo, Norway) supplemented with 100 nM penicillin/streptomycin and 10% FCS, and for ANBL-6, IH-1 and INA-6 cells 2 ng/ml recombinant IL-6 (Gibco, Thermo Fisher Scientific, Waltham, Mass., USA). […]

[3] = tested on: primary human monocytes; assay: Confocal analysis of E. coli particle uptake by primary human monocytes; assay type: cell-based; conditions: 15 μM, level comparable with CytoD treated cells
Description: Cells were pre-incubated with Pen or P7-Pen peptides, followed by addition of Alexa Fluor 488-labeled bioparticles for the times indicated (15, 30 or 45 min). Fluorescent bacteria particles were counted by spot-detection in Bitplane Imaris imaging software and used to calculate the number of particles per cell. […] Pre-incubation with 3 μM cytochalasin D (CytoD, and inhibitor of actin polymerization) inhibited uptake of E. coli to a similar extent as P7-Pen.
THP-1 cells, THP-1^cherry cells or human PBMC were seeded in 24-well glass-bottom plates (MatTek Corporation), 125,000 cells/well. The THP-1 cells were differentiated into macrophages with 60 ng/ml PMA for 72 h and thereafter rested for 48 h, whereas the PBMC were used the day after isolation. The P7-penatratin peptide or control peptide was added to the cells 30 min before stimulation at 15 μM concentration. If used, 3 μM cytochalasin D (CytoD) was added simultaneously. […] A spot detection mode in the Bitplan Imaris software was used to define individual phagosomes and cells were counted manually. […] Fluorescence voxel intensity of TRAM^cherry at the phagosome is also presented. Statistical significance was calculated in GraphPad Prism by One-way ANOVA Kruskal-Wallis multiple comparison test. […]

[4] = tested on: STAT1; assay: Western blot of STAT1 phosphorylation in LPS-stimulated THP-1 cells; assay type: cell-based, human; conditions: LPS
Description: Protein pellets were dissolved by heating protein pellets for 10 min at 95° C. in buffer containing 4 M urea, 1 SDS (Sigma) and NuPAGE® LDS Sample Buffer (4×) (Thermo Fisher Scientific). Otherwise, lysates were made using 1× RIPA lysis buffer (150 mM NaCl, 50 mM TrisHCl (pH 7.5), 1% Triton X100, 5 mM EDTA, protease inhibitors, phosphatase inhibitors). For Western blot analysis we used pre-cast protein gels NuPAGE™ Novex™ and iBlot Transfer Stacks iBlot Gel Transfer Device (Thermo Fisher Scientific). Proteins were transferred to the membrane by dry-blotting using iBlot® 2 NC Regular/Mini Stacks (Life Technologies) in the iBlot 2 Dry Blotting System (Life Technologies). After secondary antibody incubation, membranes were washed and incubated with HRP substrate solution (SuperSignal™ West Femto Maximum Sensitivity Substrate (Thermo Fisher Scientific)). Images were taken using Odyssey® Fc (LI-CORE). Quantification graphs were generated by the analysis of signal intensities for protein bands (protein of interest and endogenous loading control—β-tubulin from the same membrane) using Odyssey software (LI-CORE). Data were normalised to the expression levels of β-tubulin and presented as a relative fold change to the control sample.

Ac-ITVAASVTLTGRQIKIWFQNRRMKWKK-NH2 [Peptide P7-A4-Pen]
cell proliferation ([1]; 48 h): strongly inhibited cell proliferation | cell death ([1]; 48 h (LDH assay not shown)): induced cell death | cell proliferation [2]: Minor effects; also recorded: inhibited cell proliferation

Ac-ITVYASVTLTGRQIKIWFQNRRMKWKK-NH2 [Peptide P7-Pen]
uptake of E. coli particles [3]: inhibited

Ac-ITVYASVTLTGRRRRRRRRRRR-NH2 [Peptide P7-Arg11]
phosphorylation of STAT1 ([4]; 10 μM): strongly inhibited | phosphorylation of STAT1 ([4]; 20 μM): fully abrogated

From patent US20230220047A1, “PEPTIDES FOR TREATMENT OF SEPSIS AND CANCER” (NORWEGIAN UNIVERSITY OF SCIENCE AND TECHNOLOGY (NTNU), priority 2020, published 2023)
